According to patent US20260224494A1, “MILVEXIAN PHARMACEUTICAL COMPOSITIONS” (BRISTOL-MYERS SQUIBB COMPANY, priority 2023, published 2026):
In brackets after ≈: the same amount, converted by molar mass. Like-named read-outs stand apart in the source and are kept apart here.

Assay: Solubility of milvexian forms in organic solvent systems
Type: physicochemical
Protocol: While heating of the feed solution is a viable solution for production, it is a more complex set-up and with risk of crashing out dissolved solids in case of cold spots and plant safety. Various solvent systems (See Table 11 below) were investigated with primary focus on solvent systems containing DCM due to its low boiling point and excellent solubilization properties.
Based on the data it was determined that 70/30 w/w % DCM/MeOH and 80/20 w/w % were promising solvent mixtures and more accurate solubility determination was carried out for 80/20 w/w % DCM/MeOH for both FORM A and P1.Acetone solvate at 20° C. with the results shown in Table 12 below.
P1.Acetone was the preferred crystalline form of milvexian for physical stability and manufacturability reasons. Based on the above, 80/20 w/w % DCM/MeOH solvent system was selected for development due to highly increase solubility over the 90/10 w/w % Acetone/Water solvent system.

Row | Compound | solubility (80/20 w/w % DCM/MeOH, 20 °C, organic solvent or mixture, 80/20 w/w % DCM/MeOH, read-out: solubility) [mg/mL] | solubility at 24 hours (70/30 DCM/MeOH, 20 °C, organic solvent or mixture, thermodynamic from solid, 70/30 DCM/MeOH, 20° C., 24 hours, read-out: Solubility in mg/mL solution 24 hours) [mg/mL] | Solubility in mg/mL solution 2 weeks (70/30 DCM/MeOH, 20° C.) [mg/mL] | Solubility in mg/mL solution 2 weeks (80/20 DCM/MeOH, 20° C.) [mg/mL] | Solubility in mg/mL solution 24 hours (80/20 DCM/MeOH, 20° C., 24 hours) [mg/mL] | solubility (80/20 w/w % DCM/MeOH, listed as crystalline Form A of milvexian free form) [mg/mL] | solubility (DCM/MeOH solvent systems of Table 12, 20 °C, organic solvent or mixture, DCM/MeOH solvent systems of Table 12, read-out: solubilities achievable) [mg/mL]
1 | C[C@@H]1CCC[C@H](n2cnc(-c3cc(Cl)ccc3-n3cc(Cl)nn3)cc2=O)c2cc(ccn2)-c2c(cnn2C(F)F)NC1=O | 230 (≈ 367 mM) | – | – | – | – | – | –
2 | C[C@@H]1CCC[C@H](n2cnc(-c3cc(Cl)ccc3-n3cc(Cl)nn3)cc2=O)c2cc(ccn2)-c2c(cnn2C(F)F)NC1=O [FORM A] | – | 221 (≈ 353 mM) | 204 (≈ 326 mM) | 255 (≈ 407 mM) | 272 (≈ 434 mM) | 255 (≈ 407 mM) | > 220
